Experimental data: US10544141B2, “Derivatives and methods of treating hepatitis B infections” (Novira Therapeutics, Inc., priority 2014, dated 2020)

System: HBV
Assay: HBV replication inhibition assay (BDNA assay) in HepG2.2.15 cells
Assay type: cell-based
Conditions: 6 days treatment, encapsidated HBV DNA in supernatant by branched DNA QuantiGene assay
From the text: HBV replication inhibition by the compounds of this invention could be determined in cells infected or transfected with HBV, or cells with stably integrated HBV, such as HepG2.2.15 cells (Sells et al. 1987). In this example, HepG2.2.15 cells were maintained in cell culture medium containing 10% fetal bovine serum (FBS), Geneticin, L-glutamine, penicillin and streptomycin. HepG2.2.15 cells could be seeded in 96-well plates at a density of 40,000 cells/well and be treated with serially diluted compounds at a final DMSO concentration of 0.5% either alone or in combination by adding drugs in a checker box format. Cells were incubated with compounds for three days, after which medium was removed and fresh medium containing compounds was added to cells and incubated for another three days. At day 6, supernatant was removed and treated with DNase at 37° C. for 60 minutes, followed by enzyme inactivation at 75° C. for 15 minutes. Encapsidated HBV DNA was released from the virions and covalently linked HBV polymerase by incubating in lysis buffer (Affymetrix QS0010) containing 2.5 μg proteinase K at 50° C. for 40 minutes. HBV DNA was denatured by addition of 0.2 M NaOH and detected using a branched DNA (BDNA) QuantiGene assay kit according to manufacturer recommendation (Affymetrix). HBV DNA levels could also be quantified using qPCR, based on amplification of encapsidated HBV DNA extraction with QuickExtraction Solution (Epicentre Biotechnologies) and amplification of HBV DNA using HBV specific PCR probes that can hybridize to HBV DNA and a fluorescently labeled probe for quantitation. In addition, cell viability of HepG2.2.15 cells incubated with test compounds alone or in combination was determined by using CellTitre-Glo reagent according to the manufacturer protocol (Promega). The mean background signal from wells containing only culture medium was subtracted from all other samples, and percent inhibition at each compound concentration was calculated by normalizing to signals from HepG2.2.15 cells treated with 0.5% DMSO using equation E1. % inhibition=(DMSOave−Xi)/DMSOave×100% E1: where DMSOave is the mean signal calculated from the wells that were treated with DMSO control (0% inhibition control) and Xi is the signal measured from the individual wells. EC50 values, effective concentrations that achieved 50% inhibitory effect, were determined by non-linear fitting using Graphpad Prism software (San Diego, Calif.) and equation E2 Y=Y min+(Y max−Y min)/(1+10(Log EC50−X)×HillSlope) E2: […]
where Y represents percent inhibition values and X represents the logarithm of compound concentrations.
Selected compounds of the invention were assayed in the HBV replication assay (BDNA assay), as described above and a representative group of these active compounds is shown in Table 3. […] In Table 3, “A” represents 0.01<EC50<0.10; “B” represents 0.10≤EC50<0.50; and “C” represents 0.50≤EC50<1.0; (‘+’ indicates >50% activity at 10 μM).

[1] = Hepatitis B virus, HepG2.2.15, 144 h

Row | SMILES | EC50 [1] [nM] | further results
1 | C[C@H]1Cc2[nH]nc(C3CCCO3)c2CN1C(=O)Nc1cccc(Cl)c1 (single isomer, unassigned) [964 D1] | 10 to 100 | 
2 | C[C@H]1Cc2[nH]nc(C3CCCO3)c2CN1C(=O)Nc1ccc(F)c(Cl)c1 (single isomer, unassigned) [965 D1] | 10 to 100 | 
3 | C[C@H]1Cc2[nH]nc(C3CCCO3)c2CN1C(=O)Nc1cccc(Br)c1 (single isomer, unassigned) [966 D1] | 10 to 100 | 
4 | C[C@H]1Cc2[nH]nc(C3CCCO3)c2CN1C(=O)Nc1ccc(F)c(Br)c1 (single isomer, unassigned) [967 D1] |  | EC50: 10 to 100 nM
5 | C[C@H]1Cc2[nH]nc(C3CCCO3)c2CN1C(=O)Nc1ccc(F)c(Br)c1 (single isomer, unassigned) [967 D2] |  | EC50: 100 to 500 nM
6 | C[C@H]1Cc2[nH]nc(C3CCCO3)c2CN1C(=O)Nc1ccnc(Br)c1F (single isomer, unassigned) [968 D1] | 500 to 1000 | 
7 | C[C@H]1Cc2[nH]nc(C3CCCO3)c2CN1C(=O)Nc1ccc(F)c(C#N)c1 (single isomer, unassigned) [969 D1] | 100 to 500 | 
8 | Cc1cccc(NC(=O)N2Cc3c(C4CCCO4)n[nH]c3C[C@@H]2C)c1 (single isomer, unassigned) [970 D1] | 100 to 500 | 
9 | Cc1cc(NC(=O)N2Cc3c(C4CCCO4)n[nH]c3C[C@@H]2C)ccc1F (single isomer, unassigned) [971 D1] | 10 to 100 | 
10 | CC1Cc2[nH]nc(C3CCC3)c2CN1C(=O)Nc1ccnc(Br)c1F (stereo not drawn) [760 S] | 100 to 500 | 
11 | CC1Cc2[nH]nc(C3CCC3)c2CN1C(=O)Nc1cccc(C#N)c1F (stereo not drawn) [761 R] | 100 to 500 | 
12 | C[C@@H]1Cc2[nH]nc(C3CCCC3)c2CN1C(=O)Nc1cccc(Br)c1 [927 R] | 10 to 100 | 
13 | C[C@H]1Cc2[nH]nc(C3CCCC3)c2CN1C(=O)Nc1cccc(Br)c1 [927 S] | 10 to 100 | 
14 | C[C@@H]1Cc2[nH]nc(C3CCCC3)c2CN1C(=O)Nc1ccc(F)c(Br)c1 [928 R] | 10 to 100 | 
15 | C[C@H]1Cc2[nH]nc(C3CCCC3)c2CN1C(=O)Nc1ccc(F)c(Br)c1 [928 S] | 10 to 100 | 
16 | C[C@@H]1Cc2[nH]nc(C3CCCC3)c2CN1C(=O)Nc1ccnc(Br)c1F [929 R] | 10 to 100 | 
17 | C[C@H]1Cc2[nH]nc(C3CCCC3)c2CN1C(=O)Nc1ccnc(Br)c1F [929 S] | 10 to 100 | 
18 | C[C@@H]1Cc2[nH]nc(C3CCCC3)c2CN1C(=O)Nc1ccc(F)c(C#N)c1 [930 R] | 10 to 100 | 
19 | C[C@H]1Cc2[nH]nc(C3CCCC3)c2CN1C(=O)Nc1ccc(F)c(C#N)c1 [930 S] | 10 to 100 | 
20 | Cc1cc(NC(=O)N2Cc3c(C4CCCC4)n[nH]c3C[C@H]2C)ccc1F [931 R] | 10 to 100 | 
21 | Cc1cc(NC(=O)N2Cc3c(C4CCCC4)n[nH]c3C[C@@H]2C)ccc1F [931 S] | 10 to 100 | 
22 | C[C@@H]1Cc2[nH]nc(C3CCCC3)c2CN1C(=O)Nc1ccc(F)c(Cl)c1 [932 R] | 10 to 100 | 
23 | C[C@H]1Cc2[nH]nc(C3CCCC3)c2CN1C(=O)Nc1ccc(F)c(Cl)c1 [932 S] | 10 to 100 | 
24 | Cc1cccc(NC(=O)N2Cc3c(C4CCCC4)n[nH]c3C[C@H]2C)c1 [933 R] | 10 to 100 | 

Row | SMILES | EC50 [1] [nM] | further results
25 | Cc1cccc(NC(=O)N2Cc3c(C4CCCC4)n[nH]c3C[C@@H]2C)c1 [933 S] | 10 to 100 | 
26 | C[C@@H]1Cc2[nH]nc(C3CCCC3)c2CN1C(=O)Nc1cccc(Cl)c1 [934 R] | 10 to 100 | 
27 | C[C@H]1Cc2[nH]nc(C3CCCC3)c2CN1C(=O)Nc1cccc(Cl)c1 [934 S] | 10 to 100 | 
28 | C[C@H]1Cc2[nH]nc(C3CCCO3)c2CN1C(=O)Nc1ccc(F)c(Cl)c1 (stereo partly drawn) [965 D2] | 10 to 100 | 
29 | C[C@H]1Cc2[nH]nc(C3CCCO3)c2CN1C(=O)Nc1ccc(F)c(C#N)c1 (stereo partly drawn) [969 D2] | 100 to 500 | 
30 | Cc1cc(NC(=O)N2Cc3c(C4CCCO4)n[nH]c3C[C@@H]2C)ccc1F (stereo partly drawn) [971 D2] | 100 to 500 | 
31 | CC(C)(O)c1n[nH]c2c1CN(C(=O)Nc1cccc(Cl)c1)CC2 [Compound 238] |  | HBV replication inhibition >50% at 10 μM (qualitative flag): + (‘+’ indicates >50% activity at 10 μM)
32 | O=C(Nc1cccc(Cl)c1)N1CCc2[nH]nc(O)c2C1 [Compound 241, N-(3-chlorophenyl)-3-hydroxy-1,4,6,7-tetrahydropyrazolo[4,3-c] pyridine-5-carboxamide] |  | HBV replication inhibition >50% at 10 μM (qualitative flag): + (‘+’ indicates >50% activity at 10 μM)
33 | O=C(Nc1cccc(Cl)c1)N1CCc2[nH]nc(Br)c2C1 [Compound 260] |  | HBV replication inhibition >50% at 10 μM (qualitative flag): + (‘+’ indicates >50% activity at 10 μM)
34 | O=C(Nc1cccc(Cl)c1)N1CCc2[nH]nc(C3CCCC3)c2C1 [Compound 264, N-(3-chlorophenyl)-3-cyclopentyl-1,4,6,7-tetrahydro pyrazolo[4,3-c]pyridine-5-carboxamide] | 10 to 100 | 
35 | CC(C)c1n[nH]c2c1CN(C(=O)Nc1cccc(Cl)c1)CC2 [Compound 267] | 100 to 500 | 
36 | O=C(Nc1cccc(Cl)c1)N1CCc2[nH]nc(C3=CCOCC3)c2C1 [Compound 274] | 100 to 500 | 
37 | O=C(Nc1cccc(Cl)c1)N1CCc2[nH]nc(C3CCOCC3)c2C1 [Compound 275] | 100 to 500 | 
38 | C=C(C)c1n[nH]c2c1CN(C(=O)Nc1cccc(Cl)c1)CC2 [Compound 336] | 10 to 100 | 
39 | O=C(Nc1cccc(Cl)c1)N1CCc2[nH]nc(C3=CCCCC3)c2C1 [Compound 337, N-(3-chlorophenyl)-3-(cyclohexen-1-yl)-1,4,6,7-tetrahydro pyrazolo[4,3-c]pyridine-5-carboxamide] | 10 to 100 | 
40 | O=C(Nc1cccc(Cl)c1)N1CCc2[nH]nc(C3=CCCC3)c2C1 [Compound 338, N-(3-chlorophenyl)-3-(cyclopenten-1-yl)-1,4,6,7-tetrahydropyrazolo[4,3-c]pyridine-5-carboxamide] | 10 to 100 | 
41 | CC(CO)c1n[nH]c2c1CN(C(=O)Nc1cccc(Cl)c1)CC2 (stereo not drawn) [Compound 388, N-(3-chlorophenyl)-3-(2-hydroxy-1-methyl-ethyl)-1,4,6,7-tetrahydropyrazolo[4,3-c]pyridine-5-carboxamide] |  | HBV replication inhibition >50% at 10 μM (qualitative flag): + (‘+’ indicates >50% activity at 10 μM)
42 | O=C(Nc1cccc(Cl)c1)N1CCc2[nH]nc(C3CC3)c2C1 [Compound 440, N-(3-chlorophenyl)-3-cyclopropyl-1,4,6,7-tetrahydropyrazolo[4,3-c]pyridine-5-carboxamide] | 100 to 500 | 
43 | CC1(c2n[nH]c3c2CN(C(=O)Nc2cccc(Cl)c2)CC3)CC1 [Compound 441] | 100 to 500 | 
44 | O=C(Nc1cccc(Cl)c1)N1CCc2[nH]nc(N3CCCC3)c2C1 [Compound 455, N-(3-chlorophenyl)-3-pyrrolidin-1-yl-1,4,6,7-tetrahydropyrazolo[4,3-c] pyridine-5-carboxamide] | 100 to 500 | 
45 | CC(C)(C)c1n[nH]c2c1CN(C(=O)Nc1cccc(Cl)c1)CC2 [Compound 515, 3-tert-butyl-N-(3-chlorophenyl)-1,4,6,7-tetrahydropyrazolo[4,3-c]pyridine-5-carboxamide] | 100 to 500 | 
46 | O=C(Nc1cccc(Cl)c1)N1CCc2[nH]nc(C34CCCC3C4)c2C1 (stereo not drawn) [Compound 546, 3-(1-bicyclo[3.1.0]hexanyl)-N-(3-chlorophenyl)-1,4,6,7-tetrahydropyrazolo[4,3-c]pyridine-5-carboxamide] | 10 to 100 | 
47 | C=C(C)c1n[nH]c2c1CN(C(=O)Nc1ccnc(Cl)c1F)CC2 [Compound 547] | 100 to 500 | 
48 | C=C(C)c1n[nH]c2c1CN(C(=O)Nc1cccc(Br)c1F)CC2 [Compound 548] | 10 to 100 | 
